Active and inactive are the calls of the source.
Legend:
[1] = molecular target: Heat shock protein HSP 90-alpha (Homo sapiens, UniProt P07900); assay type: functional, organism-based
[2] = molecular target: T1, Oxysterols receptor LXR-beta (Homo sapiens, UniProt P55055); assay type: functional, cell-based;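 note: agonist activity at LXR measured by a cell-based luminescence readout across a dose range, run as a counterscreen for daf-12 agonists; HEK293 cells with Gal4-LXR fusion and GAL4-driven luciferase reporter; potency for activation of Gal4-LXR reporter so compounds are agonists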
T1 sequence (P55055 whole entry): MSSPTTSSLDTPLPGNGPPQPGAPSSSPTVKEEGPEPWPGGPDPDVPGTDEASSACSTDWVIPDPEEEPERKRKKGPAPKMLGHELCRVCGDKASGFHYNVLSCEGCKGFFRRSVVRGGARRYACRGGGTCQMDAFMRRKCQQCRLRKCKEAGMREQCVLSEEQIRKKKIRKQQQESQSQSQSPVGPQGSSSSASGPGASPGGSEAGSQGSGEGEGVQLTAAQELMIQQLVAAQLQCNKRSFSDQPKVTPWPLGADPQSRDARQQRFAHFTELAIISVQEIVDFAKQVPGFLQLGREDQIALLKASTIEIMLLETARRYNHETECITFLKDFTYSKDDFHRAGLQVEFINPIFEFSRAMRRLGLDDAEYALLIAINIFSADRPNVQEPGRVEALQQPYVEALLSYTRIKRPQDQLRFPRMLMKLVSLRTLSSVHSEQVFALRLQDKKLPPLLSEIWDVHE

[3] = Trypanosoma cruzi growth suppression in host cells – NIH3T3 host cells, beta-gal luminescence, confirmation (AID 2044); assay type: functional, cell-based;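 note: intracellular parasites grown in NIH/3T3 mouse fibroblasts as host cells; luminescent beta-galactosidase reporter signal from transgenic T. cruzi replicating inside host cells; inhibitors lower the luminescence signal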
[4] = microbe, parasite or virus in culture; assay type: functional; settings: Mycobacterium tuberculosis
[5] = NIH3T3 cell viability loss – ATP luminescence, mouse fibroblasts, counter-screen, dose response (AID 2010); assay type: functional, cell-based;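 note: cells exposed to compound for about 90 hours before reading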
[6] = molecular target: T2, Trace amine-associated receptor 1 (Homo sapiens, UniProt Q96RJ0); assay: Fluorescence-based cell-based high throughput dose response assay to identify agonists of the human trace amine associated receptor 1 (TAAR1).; assay type: functional
T2 sequence (Q96RJ0 whole entry): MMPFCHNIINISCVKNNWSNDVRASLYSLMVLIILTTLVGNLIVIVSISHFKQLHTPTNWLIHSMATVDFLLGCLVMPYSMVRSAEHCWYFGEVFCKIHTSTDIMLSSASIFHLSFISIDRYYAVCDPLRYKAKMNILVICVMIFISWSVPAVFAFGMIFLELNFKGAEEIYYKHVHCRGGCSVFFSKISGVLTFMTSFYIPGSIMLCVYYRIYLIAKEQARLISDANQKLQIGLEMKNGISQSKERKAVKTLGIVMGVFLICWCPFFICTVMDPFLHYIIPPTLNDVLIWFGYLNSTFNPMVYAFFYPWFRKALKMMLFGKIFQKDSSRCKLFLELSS

cells [7] = assay type: functional, cell-based
Protein RecA = molecular target: T3, Protein RecA (Mycobacterium tuberculosis, UniProt P9WHJ3); assay: Fluorescence Cell-Free Homogeneous Dose Retest to Identify Inhibitors of RecA-Intein Splicing Activity. [Related pubchem assays (depositor defined):AID2097, AID2223, AID489010, AID492950]; assay type: functional
T3 sequence (P9WHJ3 whole entry): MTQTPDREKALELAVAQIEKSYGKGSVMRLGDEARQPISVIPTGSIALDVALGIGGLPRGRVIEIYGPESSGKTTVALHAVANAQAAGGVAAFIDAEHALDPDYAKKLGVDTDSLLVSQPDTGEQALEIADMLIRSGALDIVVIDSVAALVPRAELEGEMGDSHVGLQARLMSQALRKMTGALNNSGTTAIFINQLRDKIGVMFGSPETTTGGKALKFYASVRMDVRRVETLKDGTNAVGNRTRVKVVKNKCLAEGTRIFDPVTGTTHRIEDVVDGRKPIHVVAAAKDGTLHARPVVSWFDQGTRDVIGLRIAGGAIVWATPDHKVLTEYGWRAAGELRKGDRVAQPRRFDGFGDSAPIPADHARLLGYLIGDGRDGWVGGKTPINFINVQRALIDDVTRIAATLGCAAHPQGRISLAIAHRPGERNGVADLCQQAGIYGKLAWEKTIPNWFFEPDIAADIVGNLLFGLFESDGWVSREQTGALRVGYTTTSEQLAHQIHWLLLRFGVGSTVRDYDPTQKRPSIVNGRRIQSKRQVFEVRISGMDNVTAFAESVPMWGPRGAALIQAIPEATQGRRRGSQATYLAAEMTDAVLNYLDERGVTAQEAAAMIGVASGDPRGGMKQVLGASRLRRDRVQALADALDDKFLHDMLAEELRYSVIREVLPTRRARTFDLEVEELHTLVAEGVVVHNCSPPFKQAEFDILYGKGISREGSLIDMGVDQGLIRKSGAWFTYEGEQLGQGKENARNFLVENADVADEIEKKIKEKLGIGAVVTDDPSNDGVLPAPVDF

[8] = molecular target: T4, Replicative DNA helicase DnaB (Mycobacterium tuberculosis, UniProt P9WMR3); assay: DnaB intein splicing inhibitors, dose response, biochemical, cell-free fluorescence (AID 449749); assay type: functional
T4 sequence (P9WMR3 whole entry): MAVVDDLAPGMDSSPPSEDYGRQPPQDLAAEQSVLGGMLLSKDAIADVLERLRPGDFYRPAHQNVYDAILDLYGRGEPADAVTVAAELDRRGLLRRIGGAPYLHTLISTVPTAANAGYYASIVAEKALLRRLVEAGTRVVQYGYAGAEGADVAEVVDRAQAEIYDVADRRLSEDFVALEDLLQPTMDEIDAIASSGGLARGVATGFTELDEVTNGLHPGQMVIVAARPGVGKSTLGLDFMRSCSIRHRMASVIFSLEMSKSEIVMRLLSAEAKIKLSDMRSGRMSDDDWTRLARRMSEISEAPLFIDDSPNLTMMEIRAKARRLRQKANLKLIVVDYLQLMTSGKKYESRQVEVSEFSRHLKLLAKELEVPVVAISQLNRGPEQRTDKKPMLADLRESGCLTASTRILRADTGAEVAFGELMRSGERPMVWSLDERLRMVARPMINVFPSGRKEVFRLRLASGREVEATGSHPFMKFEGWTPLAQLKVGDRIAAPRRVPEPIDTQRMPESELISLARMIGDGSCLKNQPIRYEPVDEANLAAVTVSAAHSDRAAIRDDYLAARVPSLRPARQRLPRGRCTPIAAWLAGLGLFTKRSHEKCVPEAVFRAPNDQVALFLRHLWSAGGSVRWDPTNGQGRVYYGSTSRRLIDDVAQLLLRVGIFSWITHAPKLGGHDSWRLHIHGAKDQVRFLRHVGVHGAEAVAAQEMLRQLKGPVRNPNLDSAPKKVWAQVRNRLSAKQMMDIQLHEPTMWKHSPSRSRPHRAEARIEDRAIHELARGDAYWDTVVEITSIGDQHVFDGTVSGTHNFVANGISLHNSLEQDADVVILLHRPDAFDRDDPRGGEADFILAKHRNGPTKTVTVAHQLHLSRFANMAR

[9] = molecular target: T2, Trace amine-associated receptor 1; assay: Counterscreen for agonists of the human trace amine associated receptor 1 (hTAAR1): Fluorescence-based cell-based high throughput dose response assay to identify hTAAR1 agonist that also desensitize TAAR1 receptor response.; assay type: functional
cells [10] = assay type: functional, cell-based; remark: listed apart in the source
[11] = blockade of melanocortin 4 receptor signaling – cell-based, plate reader, cherry pick, counter-screen for LGR2 antagonist project, dose response (AID 743444); assay type: functional;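 note: transfected HEK 293 cells stimulated with alpha-MSH peptide; potency of inhibitors of the alpha-MSH evoked signal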
[12] = toxicity toward HepG2 liver cells – cell-based, plate reader, cherry-pick, antagonist series, cytotoxicity control, dose response (AID 743416); assay type: functional
[13] = A549 cell cytotoxicity, dose response, cytotoxicity control, plate reader, cherry-pick, antagonist series (AID 743412); assay type: functional, cell-based
[14] = viability loss in HEK293 cells – cell-based, plate reader, cherry-picked samples, cytotoxicity control, dose response (AID 743446); assay type: functional
[15] = blockers of bursicon-stimulated LGR2 cAMP reporter – cell-based, HEK293, CRE-luciferase reporter, cherry pick, set 2, dose response (AID 743343); assay type: functional;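 note: transfected cells were stimulated with diluted bursicon conditioned medium after compound addition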
[16] = molecular target: FAD-linked sulfhydryl oxidase ALR (Homo sapiens, UniProt P55789); assay: ALR-catalysed DTT oxidation blockers – biochemical, H2O2 detection, luminescence, cherry-pick, dose response (AID 493248)
[17] = molecular target: T5, Zinc finger protein mex-5 (Caenorhabditis elegans, UniProt Q9XUB2); assay: potency of MEX-5 RNA-binding blockers – biochemical, C. elegans, fluorescence polarization, dose response (AID 1960)
T5 sequence (Q9XUB2 whole entry): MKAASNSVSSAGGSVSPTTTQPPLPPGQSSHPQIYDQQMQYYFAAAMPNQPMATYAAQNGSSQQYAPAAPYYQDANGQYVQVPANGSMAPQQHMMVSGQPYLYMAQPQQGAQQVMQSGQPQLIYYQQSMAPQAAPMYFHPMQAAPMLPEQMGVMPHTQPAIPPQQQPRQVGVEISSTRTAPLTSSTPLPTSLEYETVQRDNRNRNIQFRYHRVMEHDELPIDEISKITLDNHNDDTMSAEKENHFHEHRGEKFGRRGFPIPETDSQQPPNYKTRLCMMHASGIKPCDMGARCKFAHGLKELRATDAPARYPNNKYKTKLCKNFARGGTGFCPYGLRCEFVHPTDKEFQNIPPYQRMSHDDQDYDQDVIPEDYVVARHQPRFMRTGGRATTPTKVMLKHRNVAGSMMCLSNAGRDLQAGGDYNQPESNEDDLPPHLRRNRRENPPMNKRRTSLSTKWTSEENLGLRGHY

Genome polyprotein = Genome polyprotein (dengue virus type 2, UniProt P29990); assay: flavivirus cap methylation enzyme inhibition – biochemical, confirmation dose response, primary screen (AID 588689); assay type: functional
cells [18] = assay type: functional
[19] = molecular target: T6, RNA-binding protein pos-1 (Caenorhabditis elegans, UniProt G5EF15); assay: disruptors of C. elegans POS-1 RNA interaction – biochemical, fluorescence polarization, dose response (AID 1964);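 note: purified POS-1 fused to maltose binding protein made in E. coli; potency of compounds blocking POS-1 binding to fluorescent RNA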
T6 sequence (G5EF15 whole entry): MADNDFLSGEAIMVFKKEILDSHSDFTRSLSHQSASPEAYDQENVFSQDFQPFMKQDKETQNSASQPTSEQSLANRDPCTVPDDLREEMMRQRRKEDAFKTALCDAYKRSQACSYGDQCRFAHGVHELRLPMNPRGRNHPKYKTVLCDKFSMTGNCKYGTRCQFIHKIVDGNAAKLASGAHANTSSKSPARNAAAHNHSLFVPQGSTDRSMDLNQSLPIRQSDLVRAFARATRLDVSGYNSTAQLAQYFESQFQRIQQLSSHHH

Chain of Genome polyprotein (P29990 2492-3391 limits assumed): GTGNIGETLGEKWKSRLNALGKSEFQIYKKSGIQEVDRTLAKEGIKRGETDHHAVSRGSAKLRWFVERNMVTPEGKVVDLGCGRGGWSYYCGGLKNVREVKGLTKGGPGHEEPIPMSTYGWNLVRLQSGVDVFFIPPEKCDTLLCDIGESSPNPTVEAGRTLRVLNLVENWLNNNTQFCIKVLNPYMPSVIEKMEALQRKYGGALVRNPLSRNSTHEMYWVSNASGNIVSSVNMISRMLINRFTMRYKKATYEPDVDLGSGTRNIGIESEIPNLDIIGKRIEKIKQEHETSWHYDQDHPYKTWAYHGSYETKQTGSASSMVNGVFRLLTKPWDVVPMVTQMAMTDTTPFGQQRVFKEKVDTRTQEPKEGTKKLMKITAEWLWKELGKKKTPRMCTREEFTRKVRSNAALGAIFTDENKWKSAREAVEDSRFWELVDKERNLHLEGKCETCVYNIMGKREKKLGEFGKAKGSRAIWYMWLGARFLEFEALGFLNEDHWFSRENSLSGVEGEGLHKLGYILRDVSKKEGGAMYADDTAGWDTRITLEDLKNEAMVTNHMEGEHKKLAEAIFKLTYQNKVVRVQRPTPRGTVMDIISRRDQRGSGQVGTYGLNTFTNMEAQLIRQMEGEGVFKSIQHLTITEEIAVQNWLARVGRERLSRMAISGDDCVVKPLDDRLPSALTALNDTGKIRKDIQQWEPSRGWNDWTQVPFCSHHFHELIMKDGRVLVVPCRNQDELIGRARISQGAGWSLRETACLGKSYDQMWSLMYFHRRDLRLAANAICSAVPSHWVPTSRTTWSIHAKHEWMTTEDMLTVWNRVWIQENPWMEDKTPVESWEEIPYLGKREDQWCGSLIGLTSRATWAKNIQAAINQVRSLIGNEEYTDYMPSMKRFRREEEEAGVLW
Chain of FAD-linked sulfhydryl oxidase ALR (P55789 whole entry): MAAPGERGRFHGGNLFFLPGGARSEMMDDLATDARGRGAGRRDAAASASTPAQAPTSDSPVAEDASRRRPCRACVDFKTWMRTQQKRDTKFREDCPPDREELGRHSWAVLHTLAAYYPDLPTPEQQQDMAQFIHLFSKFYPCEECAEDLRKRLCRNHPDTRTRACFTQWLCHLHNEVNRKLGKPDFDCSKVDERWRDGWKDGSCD

Structure (SMILES): COc1ccc(-c2nn(-c3ccccc3)cc2C(=O)N2CCN(S(=O)(=O)c3ccccc3[N+](=O)[O-])CC2)cc1
- AC50 [1]: 3.97 µM (active)

Structure (SMILES): Cc1cnc(NC(=O)COc2ccc3c(c2)CCC3)s1
- EC50 [2]: > 67.6 µM (inactive)

Structure (SMILES): C/C(=C\C(=O)c1sccc1Cl)N(C)C
- EC50 [2]: > 67.6 µM (inactive)

Structure (SMILES): OC(COC(c1ccc(Cl)cc1)c1ccc(Cl)cc1)CN1CCc2ccccc2C1 (stereo not given)
- EC50 [3]: 2.16 µM (active)
- CC50 [4]: 34.7 µM (active)
- EC50 [5]: > 60 µM (inconclusive)
- EC50 [6]: 2.13 µM (active)
- IC50 (cells [7]): 12.1 µM (inactive)
- EC50 (Protein RecA): 81.5 µM (active)
- AC50 [8]: 2.26 µM (active)
- IC50 [9]: 9.26 µM (active)
- EC50 (cells [10]): > 29.9 µM (inactive)

Structure (SMILES): CC1CCN(C(=O)c2ccc(S(=O)(=O)Cc3cc(F)ccc3F)c([N+](=O)[O-])c2)CC1
- AC50 [11]: 53.6 µM (active)
- AC50 [12]: > 52 µM (inactive)
- AC50 [13]: 25.4 µM (active)
- AC50 [14]: 31.7 µM (active)

Structure (SMILES): COc1ccccc1NC(=O)N1CCCCN2[C@@H](CO)[C@H](c3ccc(-c4cccc(F)c4)cc3)[C@@H]2C1
- AC50 [11]: 52.2 µM (active)
- AC50 [12]: 19 µM (active)
- AC50 [13]: 18.6 µM (active)
- AC50 [15]: 64.7 µM (active)
- AC50 [14]: > 52 µM (inactive)

Structure (SMILES): O=C1CC(N2CCC(c3nc4ccccc4o3)CC2)C(=O)N1c1ccc(Cl)c(C(F)(F)F)c1 (stereo not given)
- AC50 [1]: 2.08 µM (active)

Structure (SMILES): CCSCC(C)(C)n1[nH]c2ccccc2c1=O
- EC50 [2]: > 67.6 µM (inactive)

Structure (SMILES): O=[N+]([O-])/C=C/c1c(Cl)cccc1Cl
- AC50 [1]: 1.12 µM (active)

Structure (SMILES): Nc1c2c(nc3sc4c(c13)CCCC4)CCCCC2
- EC50 [2]: > 67.6 µM (inactive)

Structure (SMILES): Cc1ccc(Sc2ccc(C=C3C(=O)N(C)C(=O)N(C)C3=O)o2)cc1
- AC50 [16]: 0.25 µM (active)
- EC50 [17]: 25.5 µM (inconclusive)
- IC50 (Genome polyprotein): 14.5 µM (active)
- IC50 (cells [18]): 21.4 µM (active)
- EC50 [19]: > 300 µM (not active)
